Measured values published in PubChem BioAssay AID190 (DTP/NCI, 2004).
Several values for one entry are separate records, joined by “and”; a condition that tells them apart may be missing. Equal entries are not always repeated. Toxic doses and inconclusive results are not listed.

Test system: AKR/Lw mice, AKR lymphoma ip, median survival T/C
Assay: NCI In Vivo Anticancer Drug Screen. Data for tumor model Lymphoma AKR (Transplanted) (intraperitoneal) in AKR/Lw mice
Settings: endpoint: median survival time, higher = longer survival
Description: The antitumor activity of compounds was measured in mice bearing transplantable tumors. Survival or tumor size were measured and the results are expressed as the measurement made in the treated group (T) divided by the measurement made in the vehicle treated control group (C). The tumor model used in this assay is Lymphoma AKR (Transplanted) (intraperitoneal) in AKR/Lw mice

[1] = dose: 12.5 mg/kg/injection, schedule: Q01DX009 (ip), vehicle: saline
[2] = dose: 50.0 mg/kg/injection, schedule: Q01DX001 (ip), vehicle: saline
[3] = dose: 50.0 mg/kg/injection, schedule: Q04DX003 (ip), vehicle: saline
[4] = dose: 100.0 mg/kg/injection, schedule: Q01DX001 (ip), vehicle: saline
[5] = dose: 100.0 mg/kg/injection, schedule: Q04DX003 (ip), vehicle: other
[6] = dose: 200.0 mg/kg/injection, schedule: Q01DX009 (ip), vehicle: saline
[7] = dose: 50.0 mg/kg/injection, schedule: Q01DX009 (ip), vehicle: saline
[8] = dose: 200.0 mg/kg/injection, schedule: Q01DX001 (ip), vehicle: saline
[9] = dose: 400.0 mg/kg/injection, schedule: Q01DX001 (ip), vehicle: saline
[10] = dose: 100.0 mg/kg/injection, schedule: Q04DX003 (ip), vehicle: Klucel (hydroxypropylcellulose) (HPC)
[11] = dose: 200.0 mg/kg/injection, schedule: Q04DX003 (ip), vehicle: Klucel (hydroxypropylcellulose) (HPC)

**Q.** Which results are given for `OCC1OC(n2cnc3c(Cl)ncnc32)C(O)C1O` (stereo unspecified)?
**A.** T/C (dose: 6.2 mg/kg/injection, schedule: Q01DX009 (ip), vehicle: saline): 100 % of control; T/C [1]: 94 % of control and 96 % of control and 105 % of control; T/C (dose: 25.0 mg/kg/injection, schedule: Q04DX003 (ip), vehicle: saline): 93 % of control; T/C [2]: 100 % of control; T/C [3]: 100 % of control and 113 % of control and 116 % of control; T/C [4]: 94 % of control and 102 % of control and 110 % of control; T/C [5]: 88 % of control; T/C (dose: 150.0 mg/kg/injection, schedule: Q04DX003 (ip), vehicle: saline): 100 % of control; T/C [6]: 87 % of control and 101 % of control and 102 % of control; T/C (dose: 200.0 mg/kg/injection, schedule: Q04DX003 (ip), vehicle: other): 113 % of control; T/C (dose: 250.0 mg/kg/injection, schedule: Q04DX003 (ip), vehicle: saline): 118 % of control; T/C (dose: 400.0 mg/kg/injection, schedule: Q01DX009 (ip), vehicle: saline): 90 % of control and 96 % of control; T/C (dose: 400.0 mg/kg/injection, schedule: Q04DX003 (ip), vehicle: other): 119 % of control and 123 % of control; T/C (dose: 500.0 mg/kg/injection, schedule: Q04DX003 (ip), vehicle: saline): 88 % of control; T/C (dose: 600.0 mg/kg/injection, schedule: Q01DX001 (ip), vehicle: saline): 90 % of control and 92 % of control; T/C (dose: 600.0 mg/kg/injection, schedule: Q04DX003 (ip), vehicle: saline): 90 % of control (2×) and 113 % of control

**Q.** Which T/C [1] does the source give for `CCCCCCCCCCCCCCCC(=O)N(CCCN)CCCCCCCCCN(CCCN)C(=O)CCCCCCCCCCCCCCC` here?
**A.** 100 % of control

**Q.** And the T/C (dose: 25.0 mg/kg/injection, schedule: Q01DX009 (ip), vehicle: saline)?
**A.** 92 % of control

**Q.** And the T/C [7]?
**A.** 107 % of control

**Q.** What about the T/C (dose: 50.0 mg/kg/injection, schedule: Q04DX003 (ip), vehicle: other) of the same molecule?
**A.** 95 % of control

**Q.** What about the T/C [4] of the same molecule?
**A.** 108 % of control

**Q.** What about the T/C [5] of the same molecule?
**A.** 95 % of control

**Q.** `C1=CC2(OCCO2)C2CC=CC3(OCCO3)C2C1` (stereo unspecified) was tested. Which T/C [4] did it give?
**A.** 104 % of control

**Q.** What about the T/C [8] of the same molecule?
**A.** 97 % of control

**Q.** What about the T/C [9] of the same molecule?
**A.** 95 % of control

**Q.** `O=c1[nH]cc(-c2ccccc2)c(=O)[nH]1` was tested. Which T/C [4] did it give?
**A.** 94 % of control

**Q.** What about the T/C [8] of the same molecule?
**A.** 88 % of control

**Q.** What about the T/C [9] of the same molecule?
**A.** 97 % of control

**Q.** Which results are given for `CC(=O)N1C(=O)C2(c3ccccc31)c1cccc3c1C(=C1C(=O)OC(=O)C12)C(=O)N3C(C)=O` (stereo unspecified)?
**A.** T/C [8]: 86 % of control; T/C [9]: 91 % of control

**Q.** With `S=C1SCN(Cc2ccccc2)CN1Cc1ccccc1` as the molecule, how does the T/C [4] read?
**A.** 111 % of control

**Q.** What about the T/C [8] of the same molecule?
**A.** 91 % of control

**Q.** And the T/C [9]?
**A.** 91 % of control

**Q.** Which results are given for `S=c1nc[nH]c2nc[nH]c12`?
**A.** T/C (dose: 6.25 mg/kg/injection, schedule: Q01DX015 (ip), vehicle: Klucel (hydroxypropylcellulose) (HPC)): 110 % of control; T/C (dose: 10.0 mg/kg/injection, schedule: Q01DX009 (ip), vehicle: saline): 94 % of control; T/C (dose: 12.5 mg/kg/injection, schedule: Q01DX015 (ip), vehicle: Klucel (hydroxypropylcellulose) (HPC)): 100 % of control; T/C (dose: 20.0 mg/kg/injection, schedule: Q01DX009 (ip), vehicle: saline): 94 % of control and 102 % of control and 105 % of control; T/C (dose: 25.0 mg/kg/injection, schedule: Q01DX015 (ip), vehicle: Klucel (hydroxypropylcellulose) (HPC)): 100 % of control; T/C (dose: 30.0 mg/kg/injection, schedule: Q01DX001 (ip), vehicle: saline): 104 % of control and 109 % of control and 112 % of control; T/C (dose: 30.0 mg/kg/injection, schedule: Q01DX009 (ip), vehicle: saline): 100 % of control; T/C (dose: 30.0 mg/kg/injection, schedule: Q04DX003 (ip), vehicle: saline): 102 % of control; T/C (dose: 37.5 mg/kg/injection, schedule: Q01DX009 (ip), vehicle: saline): 104 % of control; T/C (dose: 40.0 mg/kg/injection, schedule: Q01DX009 (ip), vehicle: saline): 94 % of control and 97 % of control and 113 % of control; T/C (dose: 50.0 mg/kg/injection, schedule: Q01DX009 (ip), vehicle: Klucel (hydroxypropylcellulose) (HPC)): 100 % of control; T/C [7]: 120 % of control; T/C (dose: 50.0 mg/kg/injection, schedule: Q01DX015 (ip), vehicle: Klucel (hydroxypropylcellulose) (HPC)): 92 % of control and 93 % of control; T/C [3]: 100 % of control; T/C (dose: 60.0 mg/kg/injection, schedule: Q01DX001 (ip), vehicle: saline): 97 % of control and 111 % of control and 113 % of control; T/C (dose: 60.0 mg/kg/injection, schedule: Q01DX009 (ip), vehicle: saline): 96 % of control; T/C (dose: 60.0 mg/kg/injection, schedule: Q04DX003 (ip), vehicle: saline): 119 % of control; T/C (dose: 75.0 mg/kg/injection, schedule: Q01DX001 (ip), vehicle: saline): 113 % of control; T/C (dose: 75.0 mg/kg/injection, schedule: Q01DX009 (ip), vehicle: saline): 109 % of control; T/C (dose: 80.0 mg/kg/injection, schedule: Q01DX009 (ip), vehicle: saline): 94 % of control and 123 % of control; T/C (dose: 100.0 mg/kg/injection, schedule: Q01DX001 (ip), vehicle: Klucel (hydroxypropylcellulose) (HPC)): 96 % of control; T/C (dose: 100.0 mg/kg/injection, schedule: Q01DX009 (ip), vehicle: Klucel (hydroxypropylcellulose) (HPC)): 90 % of control; T/C (dose: 100.0 mg/kg/injection, schedule: Q01DX009 (ip), vehicle: saline): 93 % of control; T/C [10]: 97 % of control and 100 % of control and 108 % of control; T/C (dose: 100.0 mg/kg/injection, schedule: Q04DX003 (ip), vehicle: saline): 102 % of control and 123 % of control; T/C (dose: 120.0 mg/kg/injection, schedule: Q01DX001 (ip), vehicle: saline): 93 % of control and 104 % of control and 222 % of control; T/C (dose: 120.0 mg/kg/injection, schedule: Q04DX003 (ip), vehicle: saline): 100 % of control; T/C (dose: 150.0 mg/kg/injection, schedule: Q01DX001 (ip), vehicle: Klucel (hydroxypropylcellulose) (HPC)): 102 % of control and 112 % of control; T/C (dose: 150.0 mg/kg/injection, schedule: Q01DX009 (ip), vehicle: saline): 100 % of control; T/C (dose: 175.0 mg/kg/injection, schedule: Q01DX001 (ip), vehicle: Klucel (hydroxypropylcellulose) (HPC)): 100 % of control; T/C [8]: 104 % of control; T/C [6]: 110 % of control; T/C [11]: 90 % of control; T/C (dose: 200.0 mg/kg/injection, schedule: Q04DX003 (ip), vehicle: saline): 90 % of control; T/C (dose: 300.0 mg/kg/injection, schedule: Q01DX001 (ip), vehicle: Klucel (hydroxypropylcellulose) (HPC)): 106 % of control; T/C (dose: 300.0 mg/kg/injection, schedule: Q01DX001 (ip), vehicle: saline): 119 % of control; T/C (dose: 400.0 mg/kg/injection, schedule: Q01DX001 (ip), vehicle: Klucel (hydroxypropylcellulose) (HPC)): 113 % of control; T/C [9]: 102 % of control; T/C (dose: 400.0 mg/kg/injection, schedule: Q04DX003 (ip), vehicle: Klucel (hydroxypropylcellulose) (HPC)): 121 % of control; T/C (dose: 600.0 mg/kg/injection, schedule: Q01DX001 (ip), vehicle: Klucel (hydroxypropylcellulose) (HPC)): 115 % of control

**Q.** For `CCN(CC)CCOc1ccc2c(c1)C(=O)c1cc(OCCN(CC)CC)ccc1-2`, which T/C (dose: 2.5 mg/kg/injection, schedule: Q01DX001 (ip), vehicle: saline) is on record?
**A.** 106 % of control

**Q.** And the T/C (dose: 5.0 mg/kg/injection, schedule: Q01DX001 (ip), vehicle: saline)?
**A.** 106 % of control

**Q.** What about the T/C (dose: 10.0 mg/kg/injection, schedule: Q01DX001 (ip), vehicle: saline) of the same molecule?
**A.** 106 % of control

**Q.** And the T/C (dose: 20.0 mg/kg/injection, schedule: Q01DX001 (ip), vehicle: saline)?
**A.** 100 % of control

**Q.** What about the T/C (dose: 25.0 mg/kg/injection, schedule: Q01DX007 (ip), vehicle: saline) of the same molecule?
**A.** 272 % of control

**Q.** What about the T/C [2] of the same molecule?
**A.** 102 % of control

**Q.** And the T/C (dose: 50.0 mg/kg/injection, schedule: Q01DX007 (ip), vehicle: saline)?
**A.** 102 % of control

**Q.** Which T/C [2] does the source give for `COC(=O)C1(C)CCC(c2ccc(OC)cc2)CC1=O` (stereo unspecified) here?
**A.** 113 % of control

**Q.** And the T/C (dose: 50.0 mg/kg/injection, schedule: Q04DX003 (ip), vehicle: Klucel (hydroxypropylcellulose) (HPC))?
**A.** 93 % of control

**Q.** And the T/C [4]?
**A.** 105 % of control

**Q.** And the T/C [10]?
**A.** 106 % of control

**Q.** And the T/C [8]?
**A.** 105 % of control

**Q.** What about the T/C [11] of the same molecule?
**A.** 112 % of control
